Measured values: patent US20250041279A1, “THERAPEUTIC MEDICINE FOR HEART DISEASE OR SKELETAL MUSCLE DISEASE” (SHIONOGI & CO., LTD., priority 2021, published 2025)
pIC50: −log10 of the molar value.

How the values were obtained:
recombinant human ACC1 = recombinant human ACC1 (Homo sapiens (Human), UniProt Q13085); assay: Measurement of inhibitory activity of human ACC1 (MALDI-TOF MS); format: biochemical; conditions: read-out: IC50 hACC1
Text: A cDNA encoding human ACC1 protein (1 amino acid residue to 2346 amino acid residues from the N-terminus) was cloned from a human liver cDNA library (BioChain Institute Inc.), myc tag and His-tag sequences were introduced at the 3′ end, and then inserted into pIEXBAC3 (Novagen). A recombinant baculovirus was produced in accordance with the protocol for Flash BACGOLD (Oxford Expression Technologies Ltd.), and Sf-9 cells were infected therewith to express human ACC1 protein. The recovered cells were crushed, filtered through a filter, and then subjected to Ni affinity chromatography and anion exchange chromatography. Fractions containing human ACC1 protein were collected to obtain recombinant human ACC1.
The recombinant human ACC1 and the recombinant human ACC2 obtained from the above Preparation Examples were preincubated in an assay buffer (50 mM HEPES-KOH (pH 7.4), 10 mM magnesium chloride, 6 to 10 mM potassium citrate, 4 mM glutathione reduced form, and 1.5 mg/ml bovine serum albumin) for 1 hour. Then, 5 μL of the pre-incubated enzyme solution and 5 μL of a substrate solution (50 mM HEPES-KOH (pH 7.4), 1 mM ATP, 0.8 mM acetyl-CoA, and 25 to 50 mM potassium bicarbonate) were added to a 384-well microplate into which 0.2 μl of each of solutions of the compound of the present invention (DMSO had been dispensed, and the mixture was centrifuged and shaken, and then incubated in a wet box at room temperature for 1 to 3 hours. After incubation, the enzymatic reaction was stopped by addition of EDTA, and then the sample was co-crystallized with an α-cyano-4-hydroxy cinnamic acid (CHCA) matrix on a MALDI target plate, and measurement was performed in a reflector negative mode using a matrix-assisted laser desorption ionization-time-of-flight mass spectrometer (MALDI-TOF MS). Deprotonated ions of the substrate acetyl-CoA (AcCoA) and the reaction product malonyl-CoA (MalCoA) were detected, and the intensity of each signal was used to calculate a conversion rate to malonyl-CoA or succinyl-CoA, i.e., intensity of [MalCoA-H]—/(intensity of [MalCoA-H]-+intensity of [AcCoA.H].). […] The potassium citrate concentration in the assay buffer, the potassium bicarbonate concentration in the substrate solution, and the incubation time were adjusted within the above concentrations or reaction times for each lot of the enzyme to be used.

Crl:CD (SD) rats = assay: Influence on platelet count in SD rats; format: in vivo; conditions: for Platelet count: mean ± standard deviation; for effect on platelet count: within the dose range used for evaluation
Description: The compound of the present invention was suspended in a 0.5% methylcellulose solution so as to have a dose of 50 to 600 mg/kg/day, and was orally repeatedly administered for 4 days to 6-week-old male Crl:CD (SD) rats under non-fasted conditions. On day 5 from the start of administration, blood was collected from the abdominal vena cava under anesthesia, and […]. A platelet count in plasma was evaluated with an automatic hemocytometer.

[1] = test system: leptin receptor deficient mice (db/db mice); assay: Lipid in skeletal muscle cells (IMCL) in diabetes model mice, MRS; format: in vivo; conditions: 15 mg/kg single oral, 6 hours after administration
Description: (§1) In order to examine the influence of Compound I-12 on lipid in skeletal muscle cells (IMCL) of diabetes model mice, 6 hours after a single oral administration of a vehicle or Compound I-12 (15 mg/kg) to leptin receptor deficient mice (Leprdb/Leprdb, db/db; db/db mice), MR spectroscopy (MRS) data of the tibialis anterior muscle was measured using animal MRI (Varian MRI System 7T/210, Agilent Technologies) under isoflurane anesthesia. The measurement data was analyzed using software for quantitative analysis of MRS data (LCModel), and the quantity of IMCL was calculated as a creatine ratio.

ZDF rats = assay: Lipid in skeletal muscle cells (IMCL) in diabetes model rats, MRS; format: in vivo; conditions: oral twice a day (7 mg/kg then 10 or 23 mg/kg), 24 hours after first administration
Description: In order to examine the influence of Compound I-12 on lipid in skeletal muscle cells (IMCL) of diabetic model rats, vehicle or Compound I-12 was orally administered to a spontaneous diabetes model (ZDF rats) twice a day (first morning administration: 7 mg/kg; second afternoon administration: 10 or 23 mg/kg), and 24 hours after the first administration, MR spectroscopy (MRS) data of the tibialis anterior muscle were measured using animal MRI (Varian MRI System 7T/210, Agilent Technologies) under isoflurane anesthesia. The measurement data was analyzed using software for quantitative analysis of MRS data (LCModel), and the quantity of IMCL was calculated as a creatine ratio.

SD rats = assay: Lipid in skeletal muscle cells (IMCL) in SD rats, MRS; format: in vivo; conditions: 20 mg/kg single oral, 24 hours after administration
Description: as §1, with “I-13” for “I-12”, “(IMCL), 24” for “(IMCL) of diabetes model mice, 6”, “I-13 (20” for “I-12 (15”, “SD rats,” for “leptin receptor deficient mice (Leprdb/Leprdb, db/db; db/db mice),”

Atgl knockout mice = assay: Spontaneous motility of Atgl knockout mice; format: in vivo; conditions: 45 mg/kg/10 mL repeated administration, 12 weeks of age, p<0.05, Welch's t test
Description: Atgl (adipose-triglyceride lipase) knockout mice are known as non clinical models of TGCV. Atgl knockout mice (KO mice) deficient in the Atgl gene were each produced by a known method.
In order to examine the influence of the compounds of the present invention on spontaneous motility, spontaneous motility of Atgl knockout mice was measured using SCANET MV-40 ([…]) at 12 weeks of age after repeated administration of vehicle or the compounds of the present invention to the Atgl knockout mice. The mice were allowed to stand in a cage placed in the device, and the motility thereof for 30 minutes was measured.

pIC50 (recombinant human ACC1) | Platelet count (Crl:CD (SD) rats; 100 mg/kg/day oral for 4 days) | Platelet count (Crl:CD (SD) rats; 300 mg/kg/day oral for 4 days) | Platelet count (Crl:CD (SD) rats; 600 mg/kg/day oral for 4 days) | effect on platelet count (Crl:CD (SD) rats) | Platelet count (Crl:CD (SD) rats; 50 mg/kg/day oral for 4 days) | Platelet count (Crl:CD (SD) rats; 200 mg/kg/day oral for 4 days) | SMILES | IMCL (creatine ratio), tibialis anterior muscle [1] | IMCL (creatine ratio), tibialis anterior muscle (ZDF rats) | IMCL (creatine ratio), tibialis anterior muscle (SD rats) | spontaneous motility (30 minutes) (Atgl knockout mice)
5.16 | 987 ± 86 | 988 ± 43 | 1061 ± 85 | did not affect |  |  | C[C@@H](COC1CCC(Oc2nc3c(F)cc(OC4CC4)cc3n2C)CC1)NC(N)=O (some centres unmarked) [Compound I-12] | significant IMCL decreasing effect | significant IMCL decreasing effect |  | 
6.04 | 1048 ± 65 |  |  | did not affect | 1079 ± 73 | 1122 ± 87 | CC(=O)N[C@@H](C)CCC1OCC(Oc2nc3c(F)c(OC4CC4)ccc3n2C)CO1 (some centres unmarked) [Compound I-13] |  |  | significant IMCL decreasing effect | significant improving effect
